Assay results taken from patent US12590093B2, “Indolo[2′,3′:3,4]pyrido[2,1-b]quinazoline compound and use thereof” (INSTITUTE OF MEDICINAL BIOTECHNOLOGY CHINESE ACADEMY OF …, priority 2019, dated 2026).
Entries after “also recorded” stand apart in the source; their conditions may differ.

Assays:
LXRα = target: T1, LXRα (Homo sapiens, UniProt Q13133); experiment: Nuclear receptor reporter gene transient transfection (pBIND-hLXRs-LBD) in HepG2 cells, LXRα; format: cell-based
T1 construct: expressed in transfected cells; host or cells: HepG2
T1 sequence (Q13133 209-447 limits assumed): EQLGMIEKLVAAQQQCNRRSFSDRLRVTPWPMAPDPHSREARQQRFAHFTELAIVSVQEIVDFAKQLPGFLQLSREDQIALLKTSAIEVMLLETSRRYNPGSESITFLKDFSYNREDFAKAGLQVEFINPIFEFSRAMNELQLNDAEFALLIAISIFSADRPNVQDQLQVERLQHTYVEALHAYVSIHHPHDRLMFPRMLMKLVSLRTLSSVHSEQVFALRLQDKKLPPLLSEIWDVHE
Protocol: HepG2 cells in logarithmic growth phase were digested, seeded into the white/clear 96-well plate at a density of 5×10^4 cells/well/100 μL until the cells grew to about 90% confluence and in good condition. 0.5 μL liposome (Lipofectamine® 2000) diluted with blank medium to 25 μL per well and incubated at room temperature for 5 min. The corresponding plasmids DNA (nuclear receptor plasmid:Gal4=1:10) were diluted in blank DMEM medium to 25 μL/well (mixing of two plasmids), then mixed evenly with the diluted liposome, and incubated for 20 min at 37° C. The DNA-liposome complex (50 μL per well) was added with the DMEM complete medium (100 μL per well) and mixed thoroughly to obtain a DNA-liposome complex cell culture. The cell medium was discarded, and replaced with the DNA-liposome complex cell culture (150 μL/well) (37° C., 5% CO2). After 6 h, the DNA-liposome complex cell culture medium was discarded, and 200 μL serum-free DMEM medium containing the compound at an appropriate concentration was added to each test well, and cultured for 18-24 h. The cell Luciferase activity was measured by the method as described in the Luciferase Assay System.

ApoE^−/− mice = experiment: Atherosclerosis model in ApoE−/− mice on high-fat diet, Oil Red O staining of aorta; format: in vivo; conditions: 5 mg/kg intragastrically, 12 weeks, HFD, versus model group
Protocol: 6-week-old male C57/BL6 ApoE^−/− mice were fed on normal chaw diet for one week. The mice were randomly divided into three groups (control group, high-fat diet model group, and treatment group, 12 mice per group) according to the body weight. From 7-week-old, the high-fat diet model group and the treatment group were fed on a high fat diet (HFD) (0.15% cholesterol and 20% fat), and the control group was fed on normal chow diet. The treatment group (R3) mice were administered intragastrically with TR3 (5 mg/kg). The control group and the high-fat diet model group mice were intragastrically administered with sodium carboxymethylcellulose (CMC-Na) solution. After 12 weeks of administration, all mice were fasted overnight. The blood sample was taken from the retro-orbital plexus, collected in a EP tube, and then centrifuged for 15 min (2500 rpm). The centrifuged serum (upper layer) was transferred to new EP tubes (divided into two aliquots) and stored at −20° C. for further use. The mice were fixed, and the skin was cut open along the midline of the abdomen to the neck. The abdominal cavity was cut open to collect the fresh liver tissue. The Liver tissue was put into 3 freezing tubes, and then immediately put into liquid nitrogen for subsequent detection of liver lipid detection and extraction of RNA and protein. The thorax was cut open to expose the heart. […]

`c1ccc2c(c1)CN1CCc3c([nH]c4ccccc34)C1=N2` [TR3, 5,7,8,13-tetrahydroindolo[2′,3′:3,4]pyrido[2,1-b]quinazoline] was tested, and the LXRα max (LXRα; HepG2 cells, reporter gene, 18-24 h) was 1.36, the LXRα agonist activity (LXRα; result in words) was “showed agonist activity; also recorded: simultaneously activated PPARα/γ/δ and LXRα/β to a certain extent” and the “atherosclerotic plaque area in the aorta” value (ApoE^−/− mice) was “significantly reduced”.
